Reference: ChEMBL document CHEMBL1201862, “PubChem BioAssay data set” (2004)
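Assay format: 96-well plates, 48-hour exposure. GI50: concentration for 50% inhibition of growth.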 Active and inactive are the calls of the source. Rule as the data show it: active = GI50 up to about 1.1 µM and inactive = higher.

Columns and labels:
Test in all cases: DTP human tumour cell line panel, 48 h
[1] = test system: U-251
[2] = test system: Hs-578T
[3] = test system: DU-145
[4] = test system: KM12
[5] = test system: A549
[6] = test system: OVCAR-5
[7] = test system: M14
[8] = test system: MOLT-4
[9] = test system: NCI/ADR-RES
[10] = test system: 786-0
[11] = test system: UACC-62
[12] = test system: SF-295
[13] = test system: HCT-15
[14] = test system: OVCAR-8
[15] = test system: BT-549
[16] = test system: LOX IMVI
[17] = test system: MCF7
[18] = test system: EKVX
[19] = test system: UO-31
[20] = test system: PC-3
[21] = test system: NCI-H460
[22] = test system: TK-10
[23] = test system: RPMI-8226
[24] = test system: IGROV-1
[25] = test system: OVCAR-4
[26] = test system: MDA-MB-435
[27] = test system: ACHN
[28] = test system: OVCAR-3
[29] = test system: SK-MEL-28
[30] = test system: K562
[31] = test system: UACC-257
[32] = test system: CCRF-CEM
[33] = test system: HT-29
[34] = test system: SNB-75
[35] = test system: SR
[36] = test system: SK-MEL-5
[37] = test system: NCI-H226
[38] = test system: HOP-62
[39] = test system: COLO 205
[40] = test system: CAKI-1
[41] = test system: Malme-3M
[42] = test system: MDA-MB-231
[43] = test system: HCT-116
[44] = test system: SF-268
[45] = test system: NCI-H23
[46] = test system: NCI-H522
[47] = test system: SNB-19
[48] = test system: HL-60
[49] = test system: SN12C
[50] = test system: SK-OV-3
[51] = test system: T47D

In the case of `O=C1CC(c2ccccc2)[S+]([O-])c2ccccc2N1` (stereo unspecified), the GI50 [1] is reported as > 100 µM (inactive), the GI50 [2] is reported as > 100 µM (inactive) and the GI50 [3] is reported as > 100 µM (inactive). The GI50 [4] was > 100 µM (inactive), the GI50 [5] was > 100 µM (inactive) and the GI50 [6] was > 100 µM (inactive). For the same molecule, the GI50 [7] was > 100 µM (inactive), the GI50 [8] was > 100 µM (inactive) and the GI50 [9] was > 100 µM (inactive). The GI50 [10] was > 100 µM (inactive), the GI50 [11] was > 100 µM (inactive) and the GI50 [12] was > 10 µM (inactive). The GI50 [13] was over 100 µM, the GI50 [14] was 61.7 µM (inactive) and the GI50 [15] was > 100 µM (inactive). The GI50 [16] was > 100 µM (inactive), the GI50 [17] was > 100 µM (inactive) and the GI50 [18] was > 100 µM (inactive). For the same molecule, the GI50 [19] was > 100 µM (inactive), the GI50 [20] was > 100 µM (inactive) and the GI50 [21] was > 100 µM (inactive). The GI50 [22] was > 100 µM (inactive), the GI50 [23] was > 100 µM (inactive) and the GI50 [24] was > 100 µM (inactive). The GI50 [25] was > 100 µM (inactive), the GI50 [26] was > 100 µM (inactive) and the GI50 [27] was > 100 µM (inactive). For the same molecule, the GI50 [28] was > 100 µM (inactive), the GI50 [29] was > 100 µM (inactive) and the GI50 [30] was > 100 µM (inactive). The GI50 [31] was 23.1 µM (inactive), the GI50 [32] was > 100 µM (inactive) and the GI50 [33] was > 100 µM (inactive). The GI50 [34] was > 100 µM (inactive), the GI50 [35] was 65.2 µM (inactive) and the GI50 [36] was > 100 µM (inactive). For the same molecule, the GI50 [37] was > 100 µM (inactive), the GI50 [38] was > 100 µM (inactive) and the GI50 [39] was > 100 µM (inactive). The GI50 [40] was > 100 µM (inactive), the GI50 [41] was > 100 µM (inactive) and the GI50 [42] was > 100 µM (inactive). For the same molecule, the GI50 [43] was > 100 µM (inactive), the GI50 [44] was > 100 µM (inactive) and the GI50 [45] was > 100 µM (inactive). The GI50 [46] was > 100 µM (inactive), the GI50 [47] was > 100 µM (inactive) and the GI50 [48] was > 100 µM (inactive). For the same molecule, the GI50 [49] was > 100 µM (inactive), the GI50 [50] was > 100 µM (inactive) and the GI50 [51] was > 100 µM (inactive).
